# Key:
# [1] = system: S. typhimurium; assay type: cell-based; details: C590 versus C587
# Description: (§1) The minimum inhibitory concentrations of (MIC) of CEME, CEMA and melittin were determined for a number of different bacteria (Table 2). Briefly, cells were grown overnight at 37° C. in LB-S (Luria broth without any salt supplement) and diluted one in 10,000 in the same medium to give concentrations of about 10^4 to 10^5 CFU/ml. The broth dilutions were set up in a 96 well microtiter plate by putting 200 μl of LB-S containing the initial concentration of antibiotic or compound in column 1 and 100 μl of the same medium in columns 2-12. The compounds were diluted by taking 100 μl of broth from column 1 and mixing it with column 2, resulting in a one in two dilution. This was continued to column 10. Finally, 10 μl of bacteria were pipetted into columns 1-11, and the plates incubated overnight at 37° C. The next day the plates were scored for growth in the wells, and the MIC determined.
# [2] = system: P. AERUGINOSA H309; assay type: cell-based; details: +80 mM Na+
# Description: as §1, with “Briefly,” for “The minimum inhibitory concentrations of (MIC) of CEME, CEMA and melittin were determined for a number of different bacteria (Table 2). Briefly,”
# [3] = MICs of common antibiotics in the presence of sub-MIC levels of cationic peptides; assay type: cell-based; details: for MIC of antibiotic: No peptide
# Description: as §1
# The ability of the cationic peptides to work synergystically was examined by determining the MIC values for some commonly used antibiotics in the presence of sub-MIC levels of cationic peptides (Table 4). […] This may be due to the high membrane permeabilizing activity of CEMA (see below). However, the peptides did lower the MIC of polymyxin B, possibly due to the fact that they are all taken up by the same pathway and are therefore aiding each other's uptake. Of interest is the influence that melittin has on the MIC of polymyxin B, given the […] membrane permeabilizing activity of melittin.
# [4] = system: E. coli strain DC2; experiment: Acid-urea gel overlay antibacterial activity; assay type: cell-based; details: 15% acid-urea gel overlaid with agar containing ≈10^5 cells, overnight at 37° C.
# Description: A sample of the partially purified CEME protein was electrophoresed on a 15% acid-urea gel, which separates proteins based on charge and mass (Panyim and Chalkey, Arch. Biochem Biophys., 130:337, 1969). The pH of the buffer is acidic (≈pH 5.0) and the polarity is reversed such that proteins migrate to the cathode. Therefore, the small cationic peptides run relatively quickly through the gel and thus can be easily identified. Antibacterial activity was tested as previously described (Hultmark, Eur. J. Biochem., 106:7, 1980). The gel was incubated in Mueller Hinton broth+0.2M NaPO4 pH 7.4 for 1 hr. It was overlaid with mls of the same media containing 0.6% agar and≈10^5 E. coli strain DC2, and then again with ml of the same media containing only 0.6% agar. […] Melittin is used as a positive control due to its antibacterial activity and similarity in size and PI values.
# [5] = system: P. AERUGINOSA H309; experiment: Lysozyme lysis assay (outer membrane permeabilization); assay type: cell-based
# Description: Membrane permeabilization by polycationic compounds was measured in two different assays. The first assay measured membrane disruption by the ability of lysozyme to reach the periplasm and cause cell lysis. […] The uptake of lysozyme into whole cells due to membrane permeabilization by various compounds was previously described in Hancock, et al., Antimicrobial Agents and Chemo., 19:777, 1981. Overnight cultures of P. aeruginosa H309 or E. cloacae 218R1 grown in LB-S were diluted 1 in 50 in fresh medium and grown to an OD600 =0.5-0.6. The cells were harvested in a Silencer H-103N clinical centrifuge at 1800 g for 10 min, washed once with one volume of assay buffer (5 mM HEPES pH 7.2, 5 mM KCN), and resuspended in the same buffer to an OD600 of 0.5. Assays consisted of 600 μl of cells with 50 μg/ml of chicken egg white lysozyme and varying concentrations of cationic compounds. Cell lysis was measured as a decrease in the OD600 in a Perkin-Elmer dual beam spectrophotometer. Parallel experiments performed without lysozyme enabled the measurement of the lytic activity of the compounds themselves. To test whether or not permeability to lysozyme could be inhibited by divalent cations, various concentrations of MgCl2 were added to the assay after the addition of lysozyme and before the addition of the test compound.
# [6] = system: P. AERUGINOSA H309; assay type: cell-based; details: 10 μM NPN; fluorescence increase
# Excerpt: (§2) The second assay determined membrane permeability by the ability of 1-N-phenylnaphthylamine (NPN), a small fluorescent probe, to insert itself into the membrane. Normally, very little NPN can penetrate the outer membrane, but in the presence of a membrane permeabilizer it can insert into the hydrophobic membrane resulting in an increase in fluorescence (FIGS. 7 and 8). This N-phenylnaphthylamine uptake assay was previously described by Loh, et al., Antimicrobial Agents and Chemo., 26:546, 1984. Cells were prepared exactly the same as for the lysozyme lysis assay. 1-N-phenylnaphthylamine (NPN) was dissolved in acetone at a concentration of 500 μM. NPN fluorescence was measured in a Perkin-Elmer 650-10S fluorescent spectrophotometer using excitation and emission wavelengths set to 350 nm and 420 nm respectively, with slit widths of 5 nm. The assay was standardized by adding 20 μl of NPN (final concentration of 10 μM) and 10 μl of 0.64 mg/ml of polymyxin B (final concentration of 6.4 μg/ml) into 1 ml of cells, and adjusting the resulting fluorescence to read 90% deflection (90 arbitrary units). Various compounds were tested by adding 10 μl of different concentrations to a cuvette containing 1 ml of cells and 10 μM NPN. Permeabilizing activity was designated as the total fluorescence minus the fluorescence due to NPN alone. Following the fluorescence measurement, the OD600 of the cells was taken to ensure no significant cell lysis had occurred.
# [7] = system: P. aeruginosa H103 LPS; experiment: Dansyl polymyxin (DPx) displacement from purified LPS; assay type: binding; details: on a μM basis
# Description: In this assay, DPx was incubated with LPS to saturate the binding sites and then, while polycationic compounds are titrated into the reaction, displacement of the DPx was monitored by the decrease in fluorescence (FIG. 9).
# The method of Moore, et al., (Antimicrobial Agents and Chemo., 29:496, 1987), was used to test how much DPx was needed to saturate the binding sties on LPS. Briefly, 5 μl samples of 100 μM DPx were titrated sequentially into 1 ml of 3 μg/ml of LPS until a maximum fluorescence was reached. The fluorescence was measured in a Perkin-Elmer 650-10S fluorescence spectrophotometer with an excitation wavelength of 340 nm and an emission wavelength of 485 nm using slit widths of 5 nm. […] For the binding inhibition assays (Moore, et al., Antimicrobial Agents and Chemo., 29:496, 1987), 2.5 μM DPx was added to 3 μg/ml of H103 LPS in 5 mM HEPES pH 7.2. The test compounds were added 5 μl at a time and the decrease in fluorescence due to displacement of the DPx from the LPS was recorded.
# [8] = system: E. cloacae; assay type: cell-based; details: strain 218S, Parent of 218R1
# Description: as §1
# [9] = system: E. coli; assay type: cell-based; details: strain UB1005, Parent of DC2
# Description: as §1
# [10] = system: P. aeruginosa H309 Whole Cells; assay type: binding; details: 5 mM HEPES pH 7.2, 5 mM KCN; average of at least three trials; read-out: I50 (DPx displacement from whole cells)
# [11] = system: E. cloacae 218R1; assay type: cell-based; details: 10 μM NPN; fluorescence increase
# Excerpt: as §2
Compound,Sensitivity of defensin sensitive strain C590 relative to parent (MIC change) [1],MIC [2] [µg/mL],MIC of antibiotic in the presence of CEMA ([3]; CEMA 0.7 μg/ml) [µg/mL],MIC of antibiotic in the presence of CEMA ([3]; CEMA 1.4 μg/ml) [µg/mL],MIC of antibiotic in the presence of CEME ([3]; CEME 0.6 μg/ml) [µg/mL],MIC of antibiotic in the presence of CEME ([3]; CEME 1.2 μg/ml) [µg/mL],MIC of antibiotic in the presence of Melittin ([3]; Melittin 2 μg/ml) [µg/mL],MIC of antibiotic in the presence of Melittin ([3]; Melittin 4 μg/ml) [µg/mL],MIC of antibiotic [3] [µg/mL],Antibacterial activity in overlaid gel [4],"Permeabilization of the outer membrane to lysozyme, compared with polymyxin B ([5]; 50 μg/ml lysozyme, decrease in OD600)",Cell lysis in the absence of lysozyme ([5]; increased concentrations of peptide),Permeabilizer activity relative to gentamicin ([5]; lysozyme lysis assay),Activity in opening up the membrane to NPN [6],Affinity for LPS compared with polymyxin B [7],MIC [8] [µg/mL],MIC [9] [µg/mL],IC50 [10] [µM],Activity in opening up the membrane to NPN [11]
"CC(C)(O/N=C(\C(=O)N[C@@H]1C(=O)N2C(C(=O)[O-])=C(C[n+]3ccccc3)CS[C@H]12)c1csc(N)n1)C(=O)O [Ceftazidime, ceftazidime]",unchanged,2,2,2,4,4,4,2,4,–,–,–,–,–,–,–,–,–,–
C[C@@H](O)[C@H]1C(=O)N2C(C(=O)O)=C(SCCN=CN)C[C@H]12 [Imipenem],–,–,4,2,4,4,4,4,4,–,–,–,–,–,–,–,–,–,–
"CC[C@H](C)[C@H](NC(=O)CN)C(=O)NCC(=O)N[C@@H](C)C(=O)N[C@H](C(=O)N[C@@H](CC(C)C)C(=O)N[C@@H](CCCCN)C(=O)N[C@H](C(=O)N[C@@H](CC(C)C)C(=O)N[C@H](C(=O)N[C@H](C(=O)NCC(=O)N[C@@H](CC(C)C)C(=O)N1CCC[C@H]1C(=O)N[C@@H](C)C(=O)N[C@@H](CC(C)C)C(=O)N[C@H](C(=O)N[C@@H](CO)C(=O)N[C@@H](Cc1c[nH]c2ccccc12)C(=O)N[C@H](C(=O)N[C@@H](CCCCN)C(=O)N[C@@H](CCCNC(=N)N)C(=O)N[C@@H](CCCCN)C(=O)N[C@@H](CCCNC(=N)N)C(=O)N[C@@H](CCC(N)=O)C(=O)N[C@@H](CCC(N)=O)C(N)=O)[C@@H](C)CC)[C@@H](C)CC)[C@@H](C)O)[C@@H](C)O)C(C)C)C(C)C [Melittin, melittin]",two-fold more sensitive,–,–,–,–,–,–,–,–,zones of clearing,did not appear to be a good permeabilizer,cell lysis in the absence of lysozyme occurred,5- to 10 fold,less active,slightly lower affinities,–,–,–,–
CN(C)[C@@H]1C(O)=C(C(N)=O)C(=O)[C@@]2(O)C(O)=C3C(=O)c4c(O)cccc4[C@@](C)(O)[C@H]3C[C@@H]12 [Tetracycline],–,–,8,4,8,8,8,8,8,–,–,–,–,–,–,–,–,–,–
gentamicin,two-fold more sensitive,–,–,–,–,–,–,–,–,–,–,–,–,–,–,0.5,1,39.1 ± 9.67,–
polymyxin B,four-fold more sensitive,–,0.5,0.12,0.5,0.25,0.5,0.06,1,–,–,–,–,equally active,–,0.5,0.5,2.04 ± 0.65,equally active

# — patent US5707855A (priority 1996, dated 1998)
